Structures can show the parent of a compound that is named as a salt.
Experiments:
NaV1.5 = NaV1.5 (Homo sapiens (Human), UniProt Q14524); test: Sodium Influx Assay (Flux), NaV1.5; conditions: read-out: Flux NaV1.5 IC50; Trex HEK293 cells, ANG2 dye; arithmetic mean
NaV1.6 = NaV1.6 (Homo sapiens (Human), UniProt Q9UQD0); test: Sodium Influx Assay (Flux), NaV1.6; conditions: read-out: Flux NaV1.6 IC50; Trex HEK293 cells, ANG2 dye; arithmetic mean
NaV1.1 = NaV1.1 (Homo sapiens (Human), UniProt P35498); test: Sodium Influx Assay (Flux), NaV1.1; assay type: cell-based; conditions: Trex HEK293 cells, ANG2 dye; arithmetic mean

Sequence of NaV1.5 (Q14524 other isoform, or with tags, fused parts or gaps): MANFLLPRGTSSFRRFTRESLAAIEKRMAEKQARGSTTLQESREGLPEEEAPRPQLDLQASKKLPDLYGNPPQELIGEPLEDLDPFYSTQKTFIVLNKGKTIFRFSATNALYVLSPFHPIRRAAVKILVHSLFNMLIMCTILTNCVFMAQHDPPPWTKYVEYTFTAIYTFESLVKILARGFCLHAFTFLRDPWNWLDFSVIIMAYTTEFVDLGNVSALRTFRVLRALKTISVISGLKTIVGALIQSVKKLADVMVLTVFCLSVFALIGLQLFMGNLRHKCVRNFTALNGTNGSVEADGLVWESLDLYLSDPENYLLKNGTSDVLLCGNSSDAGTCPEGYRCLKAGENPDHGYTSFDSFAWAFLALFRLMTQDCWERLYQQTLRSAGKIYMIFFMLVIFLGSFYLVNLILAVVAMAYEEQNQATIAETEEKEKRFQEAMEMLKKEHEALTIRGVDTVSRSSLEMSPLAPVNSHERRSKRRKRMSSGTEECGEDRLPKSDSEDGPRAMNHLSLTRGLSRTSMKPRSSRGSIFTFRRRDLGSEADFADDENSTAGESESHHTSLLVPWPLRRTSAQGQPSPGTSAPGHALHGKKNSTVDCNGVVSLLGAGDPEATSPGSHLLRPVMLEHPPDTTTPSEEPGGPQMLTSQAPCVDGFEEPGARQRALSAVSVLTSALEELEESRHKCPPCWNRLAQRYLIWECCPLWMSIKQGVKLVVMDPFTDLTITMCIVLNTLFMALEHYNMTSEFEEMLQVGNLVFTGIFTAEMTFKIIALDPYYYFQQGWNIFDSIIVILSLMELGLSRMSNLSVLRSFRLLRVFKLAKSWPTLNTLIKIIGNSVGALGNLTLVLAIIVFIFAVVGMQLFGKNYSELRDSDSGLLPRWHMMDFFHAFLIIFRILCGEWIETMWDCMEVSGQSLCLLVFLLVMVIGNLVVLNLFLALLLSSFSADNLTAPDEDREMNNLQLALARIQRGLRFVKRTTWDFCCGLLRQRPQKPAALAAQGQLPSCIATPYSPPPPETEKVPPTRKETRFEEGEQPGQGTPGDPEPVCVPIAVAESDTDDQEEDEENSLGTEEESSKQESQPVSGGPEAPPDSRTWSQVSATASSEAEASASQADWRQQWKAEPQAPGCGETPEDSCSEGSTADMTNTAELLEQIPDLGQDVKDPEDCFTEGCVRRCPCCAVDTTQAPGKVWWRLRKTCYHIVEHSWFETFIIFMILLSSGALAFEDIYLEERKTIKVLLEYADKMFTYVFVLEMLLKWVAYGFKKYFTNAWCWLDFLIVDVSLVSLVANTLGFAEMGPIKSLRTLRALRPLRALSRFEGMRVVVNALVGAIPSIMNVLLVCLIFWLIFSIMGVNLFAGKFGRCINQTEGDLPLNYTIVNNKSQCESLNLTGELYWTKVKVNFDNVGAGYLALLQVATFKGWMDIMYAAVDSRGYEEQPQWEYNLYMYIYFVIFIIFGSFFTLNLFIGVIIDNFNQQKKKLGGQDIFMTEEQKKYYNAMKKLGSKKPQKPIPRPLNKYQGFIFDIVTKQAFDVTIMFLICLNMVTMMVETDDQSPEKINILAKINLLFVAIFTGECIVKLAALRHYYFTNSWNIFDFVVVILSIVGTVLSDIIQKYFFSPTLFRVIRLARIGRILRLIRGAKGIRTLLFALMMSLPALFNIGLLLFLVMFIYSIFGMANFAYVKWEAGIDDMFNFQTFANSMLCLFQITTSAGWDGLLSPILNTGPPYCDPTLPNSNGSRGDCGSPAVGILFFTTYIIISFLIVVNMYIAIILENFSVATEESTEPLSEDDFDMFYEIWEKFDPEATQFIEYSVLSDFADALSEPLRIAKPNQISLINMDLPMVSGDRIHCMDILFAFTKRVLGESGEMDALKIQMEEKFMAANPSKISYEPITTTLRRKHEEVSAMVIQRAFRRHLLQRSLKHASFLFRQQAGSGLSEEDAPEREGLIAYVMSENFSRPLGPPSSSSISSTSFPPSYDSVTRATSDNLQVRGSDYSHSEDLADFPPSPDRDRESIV

| IC50 (NaV1.6) [µM] | IC50 (NaV1.1) [µM] | SMILES | IC50 (NaV1.5) [µM] |
| --- | --- | --- | --- |
| 7.52 | 12.2 | O=S(=O)(Nc1nccs1)c1ccc(OC2CCN(CC3CCCCC3)CC2)c(Cl)c1 [Example 6, 3-chloro-4-((1-(cyclohexylmethyl)piperidin-4-yl)oxy)-N-(thiazol-2-yl)benzenesulfonamide 2,2,2-trifluoroacetate] | > 30 |
| 1.16 | 10.3 | CN(c1cc(F)c(S(=O)(=O)Nc2cscn2)cc1Cl)[C@H]1CCN(Cc2cccc(Cl)c2F)C1 [Example 205, (S)-5-chloro-4-((1-(3-chloro-2-fluorobenzyl)pyrrolidin-3-yl)(methyl)amino)-2-fluoro-N-(thiazol-4-yl)benzenesulfonamide] | 8 |
| 2 | 13.7 | CN(c1cc(F)c(S(=O)(=O)Nc2cscn2)cc1Cl)[C@H]1CCN(Cc2ccccc2F)C1 [Example 218, (S)-5-chloro-2-fluoro-4-((1-(2-fluorobenzyl)pyrrolidin-3-yl)(methyl)amino)-N-(thiazol-4-yl)benzenesulfonamide] | 14.2 |
| 0.26 | 23.2 | CN(c1ccc(S(=O)(=O)Nc2ncns2)cc1Cl)[C@H]1CCN(Cc2cc(F)ccc2F)C1 [Example 325, (S)-3-chloro-4-((1-(2,5-difluorobenzyl)pyrrolidin-3-yl)(methyl)amino)-N-(1,2,4-thiadiazol-5-yl)benzenesulfonamide] | 27 |
| 1.79 | 2.94 | CN(c1cc(F)c(S(=O)(=O)Nc2cscn2)cc1Cl)[C@H]1CCN(Cc2cccc(C(F)(F)F)c2)C1 [Example 214, (S)-5-chloro-2-fluoro-4-(methyl(1-(3-(trifluoromethyl)benzyl)pyrrolidin-3-yl)amino)-N-(thiazol-4-yl)benzenesulfonamide] | 5.54 |
| 2.25 | 25.9 | Cc1cc(S(=O)(=O)Nc2cscn2)c(F)cc1N(C)[C@H]1CCN(Cc2cccc(O)c2)C1 [Example 114, (S)-2-fluoro-4-((1-(3-hydroxybenzyl)-pyrrolidin-3-yl)(methyl)amino)-5-methyl-N-(thiazol-4-yl)benzenesulfonamide] | > 30 |
| 0.353 | 8.7 | O=S(=O)(Nc1nccs1)c1ccc(OC2CCN(Cc3cccc(Cl)c3)CC2)c(Cl)c1 [Example 85, 3-chloro-4-(1-(3-chlorobenzyl)piperidin-4-yloxy)-N-(thiazol-2-yl)benzenesulfonamide] | 5.71 |
| 5.49 | 12.5 | Cc1cc(S(=O)(=O)Nc2cscn2)c(F)cc1N(C)[C@H]1CCN(Cc2ccnn2CC(F)(F)F)C1 [Example 108, (S)-2-fluoro-5-methyl-4-(methyl(1-((1-(2,2,2-trifluoroethyl)-1H-pyrazol-5-yl)methyl)pyrrolidin-3-yl)amino)-N-(thiazol-4-yl)benzenesulfonamide] | > 30 |
| 6.93 | > 30 | CN(c1cc(F)c(S(=O)(=O)Nc2cscn2)cc1Cl)[C@H]1CCN(Cc2ccn(C)n2)C1 [Example 183, (S)-5-chloro-2-fluoro-4-(methyl(1-((1-methyl-1H-pyrazol-3-yl)methyl)pyrrolidin-3-yl)amino)-N-(thiazol-4-yl)benzene-sulfonamide] | > 30 |
| 0.195 | > 30 | CCN(c1ccc(S(=O)(=O)Nc2ncns2)cc1Cl)[C@H]1CCN(Cc2cccc(C)c2)C1 [Example 37, (S)-3-chloro-4-(ethyl(1-(3-methylbenzyl)pyrrolidin-3-yl)amino)-N-(1,2,4-thiadiazol-5-yl)benzenesulfonamide] | > 30 |
| 2.48 | > 30 | C[C@H](c1ccccc1)N1CCC(Oc2ccc(S(=O)(=O)Nc3ncc(F)cn3)cc2Cl)CC1 [Example 304, (R)-3-chloro-N-(5-fluoropyrimidin-2-yl)-4-((1-(1-phenylethyl)piperidin-4-yl)oxy)benzenesulfonamide] | > 30 |
| 3.18 | 3.15 | CC1(Oc2ccc(S(=O)(=O)Nc3nccs3)cc2Cl)CCN(Cc2cccc(C(F)F)c2)CC1 [Example 21, 3-chloro-4-((1-(3-(difluoromethyl)benzyl)-4-methylpiperidin-4-yl)oxy)-N-(thiazol-2-yl)benzenesulfonamide] | 4.69 |
| 5.64 | 4.57 | CN(c1cc(F)c(S(=O)(=O)Nc2cscn2)cc1Cl)[C@H]1CCN(Cc2ccc(Br)cc2)C1 [Example 217, (S)-4-((1-(4-bromobenzyl)pyrrolidin-3-yl)(methyl)amino)-5-chloro-2-fluoro-N-(thiazol-4-yl)benzenesulfonamide] | 6.7 |
| 2.54 | 12.6 | Cc1ccc(CN2CCC(Oc3ccc(S(=O)(=O)Nc4nccs4)cc3Cl)CC2)cc1 [Example 24, 3-chloro-N-(thiazol-2-yl)-4-((1-(4-methylbenzyl)piperidin-4-yl)oxy)benzenesulfonamide 2,2,2-trifluoroacetate] | 13.5 |
| 2.8 | > 30 | CN(c1cc(F)c(S(=O)(=O)Nc2cscn2)cc1Cl)[C@H]1CCN(Cc2nc(C(F)F)ccc2F)C1 [Example 163, (S)-5-chloro-4-((1-((6-(difluoromethyl)-3-fluoropyridin-2-yl)methyl)pyrrolidin-3-yl)(methyl)amino)-2-fluoro-N-(thiazol-4-yl)benzenesulfonamide formate] | > 30 |
| 1.27 | 7.13 | CN(c1cc(F)c(S(=O)(=O)Nc2cscn2)cc1Cl)[C@H]1CCN(Cc2ccccc2OC(F)F)C1 [Example 210, (S)-5-chloro-4-((1-(2-(difluoromethoxy)benzyl)pyrrolidin-3-yl)(methyl)amino)-2-fluoro-N-(thiazol-4-yl)benzenesulfonamide] | 8.36 |
| 1.7 | 6.83 | O=S(=O)(Nc1nccs1)c1ccc(OC2CCN(Cc3ccccc3Cl)CC2)c(Cl)c1 [Example 13, 3-chloro-4-((1-(2-chlorobenzyl)piperidin-4-yl)oxy)-N-(thiazol-2-yl)benzenesulfonamide] | 5.09 |
| 4.92 | > 30 | O=S(=O)(Nc1cscn1)c1c(F)cc(O[C@H]2CCN(Cc3ccccc3)C2)c(Cl)c1F [Example 268, (S)-4-((1-benzylpyrrolidin-3-yl)oxy)-3-chloro-2,6-difluoro-N-(thiazol-4-yl)benzenesulfonamide hydrochloride] | 28.2 |
| 3.71 | > 30 | Cc1ccnc(CN2CC[C@H](N(C)c3cc(F)c(S(=O)(=O)Nc4cscn4)cc3Cl)C2)c1 [Example 216, (S)-5-chloro-2-fluoro-4-(methyl(1-((4-methylpyridin-2-yl)methyl)pyrrolidin-3-yl)amino)-N-(thiazol-4-yl)benzenesulfonamide] | > 30 |
| 0.049 | 4.1 | Cc1cc(S(=O)(=O)Nc2cscn2)c(F)cc1N(C)[C@H]1CCN(Cc2csc(C(C)C)n2)C1 [Example 107, (S)-2-fluoro-4-((1-((2-isopropylthiazol-4-yl)methyl)pyrrolidin-3-yl)(methyl)amino)-5-methyl-N-(thiazol-4-yl)benzenesulfonamide 2,2,2-trifluoroacetate] | 9.6 |
| 0.047 | 6.55 | CN(c1ccc(S(=O)(=O)Nc2ncns2)cc1Cl)[C@H]1CCN(Cc2cccc(Cl)c2F)C1 [Example 32, (S)-3-chloro-4-((1-(3-chloro-2-fluorobenzyl)pyrrolidin-3-yl)(methyl)amino)-N-(1,2,4-thiadiazol-5-yl)benzenesulfonamide] | 7.41 |

| SMILES | IC50 (NaV1.6) [µM] | IC50 (NaV1.1) [µM] | IC50 (NaV1.5) [µM] |
| --- | --- | --- | --- |
| CN(c1cc(F)c(S(=O)(=O)Nc2cscn2)c(F)c1)[C@H]1CCN(Cc2cccc(C(F)F)c2)C1 [Example 287, (S)-4-((1-(3-(difluoromethyl)benzyl)pyrrolidin-3-yl)(methyl)amino)-2,6-difluoro-N-(thiazol-4-yl)benzenesulfonamide 2,2,2-trifluoroacetate] | 6.67 | 7.81 | 8.26 |
| CC(C)Oc1cccc(CN2CC[C@H](N(C)c3cc(F)c(S(=O)(=O)Nc4cscn4)cc3Cl)C2)c1 [Example 177, (S)-5-chloro-2-fluoro-4-((1-(3-isopropoxybenzyl)-pyrrolidin-3-yl)(methyl)amino)-N-(thiazol-4-yl)benzene-sulfonamide compound with triethylamine (1:0.35)] | 3.15 | 3.91 | 7.52 |
| C[C@H]1C[C@H](N(C)c2cc(F)c(S(=O)(=O)Nc3cscn3)cc2Cl)CN1Cc1ccccc1 [Example 231, 4-(((3S,5S)-1-benzyl-5-methylpyrrolidin-3-yl)(methyl)amino)-5-chloro-2-fluoro-N-(thiazol-4-yl)benzenesulfonamide formate] | 5.51 | 25.5 | 15.1 |
| Cc1cc(C)cc(CN2CCC(Oc3ccc(S(=O)(=O)Nc4ncns4)cc3Cl)C(C)(C)C2)c1 (stereo not drawn) [Example 3, 3-chloro-4-((1-(3,5-dimethylbenzyl)-3,3-dimethylpiperidin-4-yl)oxy)-N-(1,2,4-thiadiazol-5-yl)benzenesulfonamide 2,2,2-trifluoroacetate] | 6.59 | 20.8 | 6.17 |
| CC[C@@H](c1ccccc1Cl)N1CC[C@H](N(C)c2cc(F)c(S(=O)(=O)Nc3cscn3)cc2Cl)C1 [Example 248, 5-chloro-4-(((S)-1-((S)-1-(2-chlorophenyl)propyl)pyrrolidin-3-yl)(methyl)amino)-2-fluoro-N-(thiazol-4-yl)benzenesulfonamide 2,2,2-trifluoroacetate] | 3.31 | 5.53 | 7.06 |
